Data: the NIST ThermoML archive (doi:10.1021/je401020e)
Numbers after ± are expanded uncertainties.

Legend:
[1] = refractive index (Na D-line) (dimensionless); settings: 298.15 K; 101.33 kPa; Liquid; Standard Abbe refractometry
[2] = Liquid; for mass density: 298.15 K, 101.33 kPa, Vibrating tube method; for vapor or sublimation pressure: Closed cell (Static) method

OCCO [1,2-ethanediol]
refractive index [1]: 1.4312 ± 0.0003
mass density [2]: 1107.92 ± 0.09 kg/m3
vapor or sublimation pressure ([2]; 405.97 K): 10 ± 0.73 kPa
vapor or sublimation pressure ([2]; 406.07 K): 10 ± 0.73 kPa
vapor or sublimation pressure ([2]; 423.18 K): 20 ± 0.99 kPa
vapor or sublimation pressure ([2]; 441.92 K): 40 ± 1.6 kPa

OCCCCO [1,4-butanediol]
refractive index [1]: 1.4449 ± 0.0003
mass density [2]: 1013.04 ± 0.05 kg/m3
vapor or sublimation pressure ([2]; 437.48 K): 10 ± 0.73 kPa
vapor or sublimation pressure ([2]; 454.63 K): 20 ± 0.99 kPa
vapor or sublimation pressure ([2]; 473.22 K): 40 ± 1.6 kPa

OCCOCCO [diethylene glycol]
refractive index [1]: 1.4452 ± 0.0003
mass density [2]: 1112.56 ± 0.12 kg/m3
vapor or sublimation pressure ([2]; 445.07 K): 10 ± 0.82 kPa
vapor or sublimation pressure ([2]; 445.47 K): 10 ± 0.81 kPa
vapor or sublimation pressure ([2]; 464.36 K): 20 ± 1.1 kPa
vapor or sublimation pressure ([2]; 485.33 K): 40 ± 1.8 kPa

OCCOCCOCCO [triethylene glycol]
refractive index [1]: 1.4457 ± 0.0003
mass density [2]: 1120.7 ± 0.1 kg/m3
vapor or sublimation pressure ([2]; 480.39 K): 10 ± 0.88 kPa
vapor or sublimation pressure ([2]; 500.97 K): 20 ± 1.2 kPa
vapor or sublimation pressure ([2]; 524.64 K): 40 ± 2 kPa
